By Km is commonly meant the substrate concentration at which the rate is half of its maximum.

Data on two compounds can be found in US20260103686A1, “MICROBIAL STRAIN, PROTEIN, AND METHOD FOR PRODUCING GALLIC ACID USING MICROBIAL STRAIN OR PROTEIN” (UNIVERSITY OF TSUKUBA, priority 2022, published 2026).

For experiment [1], the target named is Hylemonella gracilis-derived PobA (HgPobA, SEQ ID NO: 20) variant HgPobA-TY, T302A/Y393F (gene SEQ ID NO: 37) (Hylemonella gracilis, UniProt F3KT36, T302A/Y393F). The experiment can be described thus: Reaction kinetic analysis of HgPobA-TY.
Chain of Hylemonella gracilis-derived PobA (HgPobA, SEQ ID NO: 20) variant HgPobA-TY, T302A/Y393F (gene SEQ ID NO: 37) (F3KT36 1-402 T302A/Y393F): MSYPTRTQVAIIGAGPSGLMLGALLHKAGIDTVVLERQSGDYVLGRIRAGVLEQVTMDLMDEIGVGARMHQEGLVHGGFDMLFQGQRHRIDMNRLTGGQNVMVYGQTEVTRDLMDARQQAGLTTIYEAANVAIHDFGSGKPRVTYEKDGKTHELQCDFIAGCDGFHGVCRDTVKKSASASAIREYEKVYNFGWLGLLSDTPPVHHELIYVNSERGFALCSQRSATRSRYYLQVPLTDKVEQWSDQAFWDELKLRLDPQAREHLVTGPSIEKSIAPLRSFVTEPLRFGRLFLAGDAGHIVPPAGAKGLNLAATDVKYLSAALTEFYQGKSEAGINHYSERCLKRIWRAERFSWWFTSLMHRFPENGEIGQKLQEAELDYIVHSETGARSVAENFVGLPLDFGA
Protocol: The cell-free extracts were subjected to a HisTrap HP column (GE healthcare) which was equilibrated with an equilibration buffer (20 mM Tris-HCl buffer (pH 7.9), 20 mM imidazole), and then fractions eluted with an eluent (20 mM Tris-HCl buffer (pH 7.9), 500 mM imidazole) were collected.
The protein concentrations of the purified enzyme liquids were measured using Bio-Rad Protein Assay Dye Reagent Concentrate (Bio-Rad, USA), and the purified enzyme liquids were diluted to 1 of mg/mL with a buffer.
Experiment [2] addresses Pseudomonas aeruginosa-derived PobA (PaPobA), p-hydroxybenzoate hydroxylase, wild type, SEQ ID NO: 28 (Pseudomonas aeruginosa, UniProt P20586). The experiment can be described thus: Reaction kinetic analysis of PaPobA (comparison). The note with it: PCA substrate (2 mM), 200 µM NADPH, 10 µM FAD, pH 7.9, 25° C., 340 nm. An excerpt: A polynucleotide encoding Pseudomonas aeruginosa-derived PobA was artificially synthesized based on the gene sequence information of Pseudomonas aeruginosa-derived PobA (PaPobA) (SEQ ID NO: 14).

Experiment [3] deals with Polaromonas sp.-derived PobA (PoPobA), protocatechuic acid 5-hydroxylase, wild type, SEQ ID NO: 22. The experiment is described as follows: Reaction kinetic analysis of PoPobA. Format: biochemical. The note with it: 200 µM NADPH, 10 µM FAD, pH 7.9, 25° C., 340 nm. An excerpt: By the same procedures, a target pRSF-PoPobA plasmid was obtained based on the gene sequence information of Polaromonas sp.-derived PobA (PoPobA) (SEQ ID NO: 7). The base sequences of primers 5 and 6 used are shown below.

For experiment [4], the system named is Hydrogenophaga sp.-derived PobA (HyPobA), protocatechuic acid 5-hydroxylase, wild type, SEQ ID NO: 21. The experiment is described as follows: Reaction kinetic analysis of HyPobA. Format: biochemical. The note with it: 200 µM NADPH, 10 µM FAD, pH 7.9, 25° C., 340 nm. The source says:
By the same procedures, a target […] plasmid was obtained based on the gene sequence information of Hydrogenophaga sp.-derived PobA (HyPobA) (SEQ ID NO: 4). The base sequences of primers 3 and 4 used are shown below.

The mark [5] stands for this setting: PCA substrate, read-out: Km^app (PCA).
The mark [6] stands for this setting: read-out: Km^app (pHBA), pHBA substrate.

Where two headings read alike, the source gives them in different places.

Chain of Pseudomonas aeruginosa-derived PobA (PaPobA), p-hydroxybenzoate hydroxylase, wild type, SEQ ID NO: 28 (P20586 whole entry): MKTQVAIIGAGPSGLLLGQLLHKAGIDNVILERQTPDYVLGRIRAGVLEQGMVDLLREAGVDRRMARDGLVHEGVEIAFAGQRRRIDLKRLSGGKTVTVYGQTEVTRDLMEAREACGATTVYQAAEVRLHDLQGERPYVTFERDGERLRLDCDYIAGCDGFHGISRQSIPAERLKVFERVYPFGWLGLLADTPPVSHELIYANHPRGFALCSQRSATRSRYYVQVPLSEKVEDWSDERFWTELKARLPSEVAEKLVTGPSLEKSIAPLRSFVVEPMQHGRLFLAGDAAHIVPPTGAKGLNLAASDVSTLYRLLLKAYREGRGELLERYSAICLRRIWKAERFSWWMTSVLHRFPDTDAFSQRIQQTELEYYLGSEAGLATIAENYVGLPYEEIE

With `O=C(O)c1ccc(O)c(O)c1` [PCA, protocatechuic acid], the “kcat value for PCA relative to PaPobA” value in experiment [1] (HgPobA-TY versus PaPobA) is 3.6 times. For the same compound, the “kcat^app (PCA)” value in experiment [1] (PCA substrate (2 mM), 200 µM NADPH, 10 µM FAD, pH 7.9, 25° C., 340 nm) was determined as 1.8 s⁻¹; in experiment [2] it was 0.50 s⁻¹; in experiment [3] (PCA substrate (2 mM)) it was 2.7 s⁻¹; in experiment [4] (PCA substrate (2 mM)) it was 6.6 s⁻¹. Further, the figures for the Km in experiment [3] (setting [5]) and in experiment [4] (setting [5]) were 920 µM and 570 µM, respectively.

Take `O=C(O)c1ccc(O)cc1` [pHBA, p-hydroxybenzoic acid]: the values for the Km in experiment [3] (setting [6]) and in experiment [4] (setting [6]) were 340 µM and 56 µM, respectively.
